Values joined by “and” are separate entries in the source; they are usually repeats but may differ in a detail not shown here. Identical values can stand only once.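 Where inhibition never reached the appropriate level, the endpoint shown equals the highest concentration tested. Otherwise, values were interpolated linearly from a five-concentration, 48-hour dose response in 96-well plates. The concentration for 50% growth inhibition is given as GI50. TGI: total growth inhibition.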
Each molecule was assayed on NCI-H522 lung (assay: NCI anticancer screen, dose series, 48 h).

Row | Compound | GI50 | TGI
1 | O=C1c2cccc(Oc3ccccc3)c2C(=O)c2cccc(Oc3ccccc3)c21 | > 100 µM | > 100 µM
2 | O=C(OCc1ccc2c(Br)cc(Br)c(O)c2n1)c1cc2ccccc2[nH]1 | 0.552 µM | 2.19 µM
3 | CC(C)(CO)CNC(=O)c1ccc2[nH]c(O)c(N=Nc3ccc(S(N)(=O)=O)cc3)c2c1 | > 25 µM | > 25 µM
4 | Cc1cc(O)c2c(c1)C(=O)C=CC2=O | 3.8 µM and 1.46 µM | 8.05 µM and 3.06 µM
5 | CC1(C)N=C(N)N=C(N)N1c1ccc(CCC(=O)Nc2ccc(S(=O)(=O)F)cc2)cc1 | 1.26 µM | > 100 µM
6 | N#CC1(c2ccc(NC(=O)c3cccnc3NCc3ccncc3)cc2)CCCC1 | 7.6 µM | 35.1 µM
7 | CCN1C(=S)N(CC)C2C1NC(=S)N2/N=C/C=C/c1ccccc1OC (stereo not given) | 0.137 µM | 1.19 µM
8 | Cn1nccc1Nc1nccc(-c2ccn([C@H](CO)c3ccc(Cl)c(F)c3)c(=O)c2)n1 | 13.1 µM | > 51.9 µM
9 | N#Cc1nc2c(S(=O)(=O)c3ccc(Cl)cc3)c(N)n(Nc3cccc(Cl)c3)c2nc1C#N | 0.11 µM | 0.449 µM
10 | O=C(NCCNCCO)c1ccc2c(c1)oc1cc3ccccc3c(=O)n12 | 18.2 µM | > 50 µM

Each molecule was assayed on SK-MEL-28 melanoma (assay: NCI anticancer screen, dose series, 48 h).

Row | Compound | GI50 | TGI
11 | O=C1c2cccc(Oc3ccccc3)c2C(=O)c2cccc(Oc3ccccc3)c21 | > 100 µM | > 100 µM
12 | O=C(OCc1ccc2c(Br)cc(Br)c(O)c2n1)c1cc2ccccc2[nH]1 | 1.24 µM | 2.51 µM
13 | CC(C)(CO)CNC(=O)c1ccc2[nH]c(O)c(N=Nc3ccc(S(N)(=O)=O)cc3)c2c1 | > 25 µM | > 25 µM
14 | Cc1cc(O)c2c(c1)C(=O)C=CC2=O | 20.4 µM and 8.89 µM | 35.5 µM and 23.6 µM
15 | CC1(C)N=C(N)N=C(N)N1c1ccc(CCC(=O)Nc2ccc(S(=O)(=O)F)cc2)cc1 | 8.22 µM | > 100 µM
16 | N#CC1(c2ccc(NC(=O)c3cccnc3NCc3ccncc3)cc2)CCCC1 | 17.3 µM | > 89.8 µM
17 | CCN1C(=S)N(CC)C2C1NC(=S)N2/N=C/C=C/c1ccccc1OC (stereo not given) | 1.11 µM | > 100 µM
18 | Cn1nccc1Nc1nccc(-c2ccn([C@H](CO)c3ccc(Cl)c(F)c3)c(=O)c2)n1 | 0.104 µM | > 100 µM
19 | N#Cc1nc2c(S(=O)(=O)c3ccc(Cl)cc3)c(N)n(Nc3cccc(Cl)c3)c2nc1C#N | 0.00349 µM | 0.011 µM
20 | O=C(NCCNCCO)c1ccc2c(c1)oc1cc3ccccc3c(=O)n12 | > 50 µM | > 50 µM

These molecules were tested on MOLT-4 leukemia (assay: NCI anticancer screen, dose series, 48 h).

Row | Compound | GI50 [µM] | TGI
21 | O=C1c2cccc(Oc3ccccc3)c2C(=O)c2cccc(Oc3ccccc3)c21 | > 100 | > 100 µM
22 | O=C(OCc1ccc2c(Br)cc(Br)c(O)c2n1)c1cc2ccccc2[nH]1 | 0.488 | 2.49 µM
23 | CC(C)(CO)CNC(=O)c1ccc2[nH]c(O)c(N=Nc3ccc(S(N)(=O)=O)cc3)c2c1 | > 25 | > 25 µM
24 | Cc1cc(O)c2c(c1)C(=O)C=CC2=O | – | 1.71 µM and 1.61 µM
25 | CC1(C)N=C(N)N=C(N)N1c1ccc(CCC(=O)Nc2ccc(S(=O)(=O)F)cc2)cc1 | 4.62 | > 100 µM
26 | N#CC1(c2ccc(NC(=O)c3cccnc3NCc3ccncc3)cc2)CCCC1 | 6.26 | 31.9 µM
27 | CCN1C(=S)N(CC)C2C1NC(=S)N2/N=C/C=C/c1ccccc1OC (stereo not given) | 0.464 | > 54.7 µM
28 | Cn1nccc1Nc1nccc(-c2ccn([C@H](CO)c3ccc(Cl)c(F)c3)c(=O)c2)n1 | 24.4 | > 92.2 µM
29 | N#Cc1nc2c(S(=O)(=O)c3ccc(Cl)cc3)c(N)n(Nc3cccc(Cl)c3)c2nc1C#N | 0.0162 | 0.103 µM
30 | O=C(NCCNCCO)c1ccc2c(c1)oc1cc3ccccc3c(=O)n12 | 44.3 | > 50 µM

Each molecule was assayed on UACC-257 melanoma (assay: NCI anticancer screen, dose series, 48 h).

Row | Compound | GI50 [µM] | TGI
31 | O=C1c2cccc(Oc3ccccc3)c2C(=O)c2cccc(Oc3ccccc3)c21 | > 100 | > 100 µM
32 | O=C(OCc1ccc2c(Br)cc(Br)c(O)c2n1)c1cc2ccccc2[nH]1 | 1.36 | 3.38 µM
33 | CC(C)(CO)CNC(=O)c1ccc2[nH]c(O)c(N=Nc3ccc(S(N)(=O)=O)cc3)c2c1 | > 25 | > 25 µM
34 | Cc1cc(O)c2c(c1)C(=O)C=CC2=O | 9.95 | 11.3 µM and 27.8 µM
35 | CC1(C)N=C(N)N=C(N)N1c1ccc(CCC(=O)Nc2ccc(S(=O)(=O)F)cc2)cc1 | 15.5 | > 100 µM
36 | N#CC1(c2ccc(NC(=O)c3cccnc3NCc3ccncc3)cc2)CCCC1 | 17.7 | > 68.9 µM
37 | CCN1C(=S)N(CC)C2C1NC(=S)N2/N=C/C=C/c1ccccc1OC (stereo not given) | 21.8 | > 100 µM
38 | Cn1nccc1Nc1nccc(-c2ccn([C@H](CO)c3ccc(Cl)c(F)c3)c(=O)c2)n1 | 0.158 | > 100 µM
39 | N#Cc1nc2c(S(=O)(=O)c3ccc(Cl)cc3)c(N)n(Nc3cccc(Cl)c3)c2nc1C#N | – | 37.2 µM
40 | O=C(NCCNCCO)c1ccc2c(c1)oc1cc3ccccc3c(=O)n12 | 19.6 | > 50 µM

Each molecule was assayed on SF-539 CNS (assay: NCI anticancer screen, dose series, 48 h).

Row | Compound | GI50 [µM] | TGI
41 | O=C1c2cccc(Oc3ccccc3)c2C(=O)c2cccc(Oc3ccccc3)c21 | 41.5 | > 100 µM
42 | O=C(OCc1ccc2c(Br)cc(Br)c(O)c2n1)c1cc2ccccc2[nH]1 | 0.962 | 2.17 µM
43 | CC(C)(CO)CNC(=O)c1ccc2[nH]c(O)c(N=Nc3ccc(S(N)(=O)=O)cc3)c2c1 | > 25 | > 25 µM
44 | Cc1cc(O)c2c(c1)C(=O)C=CC2=O | – | 31.4 µM and 30.8 µM
45 | CC1(C)N=C(N)N=C(N)N1c1ccc(CCC(=O)Nc2ccc(S(=O)(=O)F)cc2)cc1 | 2.94 | > 94.1 µM
46 | N#CC1(c2ccc(NC(=O)c3cccnc3NCc3ccncc3)cc2)CCCC1 | 3.37 | 29.9 µM
47 | CCN1C(=S)N(CC)C2C1NC(=S)N2/N=C/C=C/c1ccccc1OC (stereo not given) | 0.194 | 0.541 µM
48 | Cn1nccc1Nc1nccc(-c2ccn([C@H](CO)c3ccc(Cl)c(F)c3)c(=O)c2)n1 | 2.24 | 6.91 µM
49 | N#Cc1nc2c(S(=O)(=O)c3ccc(Cl)cc3)c(N)n(Nc3cccc(Cl)c3)c2nc1C#N | 0.0307 | 0.179 µM

Source: PubChem BioAssay (NCI)
